Measurements as given in patent US20090239916A1, “NOVEL DRUG DISCOVERY TARGET AND MEDICINE ACTING ON THE SAME” (Reverse Proteomics Research Institute Co., Ltd, priority 2004, published 2009).
Where a name gives a salt, the structure may show the parent alone.

Assays:
MFP-2 = molecular target: T1, MFP-2 (Rattus norvegicus, UniProt P97852); assay: Binding experiments: compound-immobilized resins with rat brain lysate, SDS-PAGE and MALDI-TOF identification; details: first vs second binding experiment with fresh resin, SDS gel
T1 construct: The supernatant thus obtained was used as the lysate; from tissue; host or cells: rat brain
T1 sequence (P97852 1-735): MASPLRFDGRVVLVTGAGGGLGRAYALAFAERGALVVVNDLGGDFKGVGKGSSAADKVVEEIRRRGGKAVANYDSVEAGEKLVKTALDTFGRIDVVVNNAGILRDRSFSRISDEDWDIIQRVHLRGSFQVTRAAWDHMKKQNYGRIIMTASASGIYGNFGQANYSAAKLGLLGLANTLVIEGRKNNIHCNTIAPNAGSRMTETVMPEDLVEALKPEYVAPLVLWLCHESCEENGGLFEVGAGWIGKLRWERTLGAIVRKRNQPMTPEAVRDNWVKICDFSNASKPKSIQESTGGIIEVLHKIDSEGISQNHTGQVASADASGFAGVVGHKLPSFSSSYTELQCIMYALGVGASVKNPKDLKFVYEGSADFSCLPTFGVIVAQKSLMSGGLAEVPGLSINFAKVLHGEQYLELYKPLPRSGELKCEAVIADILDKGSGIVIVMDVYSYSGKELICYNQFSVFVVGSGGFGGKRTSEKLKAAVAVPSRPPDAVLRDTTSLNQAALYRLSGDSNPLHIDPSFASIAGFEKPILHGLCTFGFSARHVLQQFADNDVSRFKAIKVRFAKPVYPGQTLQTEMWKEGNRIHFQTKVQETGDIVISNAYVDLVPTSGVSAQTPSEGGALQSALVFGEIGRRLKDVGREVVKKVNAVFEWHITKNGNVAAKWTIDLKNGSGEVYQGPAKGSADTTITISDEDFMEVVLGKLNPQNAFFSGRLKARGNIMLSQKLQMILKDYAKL
Description: The rat brain (2.4 g) was mixed in a mixed solution A (25 mM Tris-HCl pH 8.0, 0.5% Tween 20, 300 μM DCC (24 ml; N,N-diethyldithiocarbamate sodium)) and prepared as a homogenate, which was then centrifuged at 9,000 rpm for 10 minutes. The centrifugal supernatant was collected and further centrifuged at 50,000 rpm for 30 minutes. The supernatant thus obtained was used as the lysate. Note that all experiments were performed at 4° C. or on ice.
Binding experiments were performed using the immobilizing resins with each test compound immobilized thereon, prepared in Examples 1 to 2, and the rat brain lysate prepared in Example 3(1), per the procedures shown below.
Each resin (10 μl) and lysate (1 ml) were gently shaken at 4° C. for about 1 hour. Thereafter, centrifugal operation was performed, and each supernatant was collected carefully. Then, each supernatant was again mixed with a fresh compound-bound resin (10 μl). At this time, the separated compound-bound resin was gently stored at 4° C. as the resin of the first binding experiment. After the mixture was gently stirred for about 1 hour, centrifugal operation was performed, and the supernatant was removed. […] The sample solution thus obtained was separated using a commercially available SDS gel (BioRad readyGel J, 10% SDS, cat. NO=161-J341), and the SDS gel was analyzed (FIG. 2). […]

recombinant MFP-2 = molecular target: T2, recombinant MFP-2 (Homo sapiens, UniProt P51659); assay: Measurement of Kd value between MFP-2 and Intal using Biacore; type: binding; details: Biacore 3000; Intal-immobilized gold chip; MFP-2 25, 12.5 and 6.25 nM; global fitting
T2 construct: His-tag (N); made in house; host or cells: E. coli (pDEST17, GATEWAY system)
T2 sequence (P51659 1-736): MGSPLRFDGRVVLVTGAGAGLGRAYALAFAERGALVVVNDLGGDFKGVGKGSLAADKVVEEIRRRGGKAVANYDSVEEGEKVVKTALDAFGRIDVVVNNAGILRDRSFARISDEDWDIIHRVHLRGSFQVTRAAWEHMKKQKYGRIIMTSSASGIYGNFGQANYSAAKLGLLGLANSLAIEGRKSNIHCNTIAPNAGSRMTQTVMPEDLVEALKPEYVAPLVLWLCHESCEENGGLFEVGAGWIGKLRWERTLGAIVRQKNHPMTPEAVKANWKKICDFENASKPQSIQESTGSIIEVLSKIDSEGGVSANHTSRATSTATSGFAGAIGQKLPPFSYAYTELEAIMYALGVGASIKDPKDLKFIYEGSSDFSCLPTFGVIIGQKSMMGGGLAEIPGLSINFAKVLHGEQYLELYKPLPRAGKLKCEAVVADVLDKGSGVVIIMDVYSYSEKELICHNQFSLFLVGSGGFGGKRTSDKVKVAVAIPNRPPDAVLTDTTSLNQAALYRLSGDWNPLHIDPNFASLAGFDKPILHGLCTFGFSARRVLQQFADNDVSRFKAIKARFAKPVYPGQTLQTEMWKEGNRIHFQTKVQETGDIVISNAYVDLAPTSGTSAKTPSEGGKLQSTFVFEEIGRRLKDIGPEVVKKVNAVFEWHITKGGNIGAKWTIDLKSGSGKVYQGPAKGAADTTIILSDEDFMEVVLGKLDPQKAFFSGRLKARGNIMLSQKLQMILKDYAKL
Description: The SIA kit Au from Biacore Company (#BR-1004-05) was immersed in Piranha solution (25% H2O2, 75% H2SO4) in a glass dish, and washed with shaking for 3 hours. Next, this chip was washed with Milli-Q Water and ethanol, and allowed to stand overnight as immersed in an ethanol solution (1.5 mM) of 11-amino-1-undecanethiol hydrochloride (Dojindo, #A423). After this was washed with N-methylpyrrolidone (NMP), it was placed in an NMP solution containing N-Fmoc-amido-dPEG4™-acid (50 mM), PyBop (50 mM) and diisopropylethylamine (Pr2Net; 100 mM) and shaken for 16 hours to cause the reaction. After the mixture was washed with NMP, the reaction was allowed to proceed in an acetonitrile (MeCN) solution containing acetic acid (10 mM), HOBt (10 mM) and WSCI (water-soluble carbodiimide; 10 mM) for 5.5 hours. […]
An entry vector was prepared using the GATEWAY system from Invitrogen Company, and recombinant MFP-2 was expressed as a protein with N-terminal His-tag using an E. coli expression system (pDEST17). […]
The Kd value was measured using Biacore 3000. […]
After data were measured, differences from the control were determined using analytical software (BIACORE Company, BIA evaluation ver 4.1) and analyzed by global fitting to calculate the Kd value. As a result, the value was determined to be 0.64 nM.

Structure (SMILES): O=C(O)c1cc(=O)c2c(OCC(O)COc3cccc4oc(C(=O)O)cc(=O)c34)cccc2o1 [Intal, disodium salt of 1,3-bis(2-carboxychromon-5-yloxy)-2-hydroxypropane]
- binding of MFP-2 to the compound-immobilized resin (MFP-2): specific binding
- Kd (recombinant MFP-2): 640 pM

Structure (SMILES): O=C(Cn1c(=O)sc2ccc(Cl)cc21)N1CCN(CCO)CC1 [tiaramide]
- binding of MFP-2 to the compound-immobilized resin (MFP-2): specific binding
